Patent US11179414B2, “Method for producing protease degradation composition” (LAIMU CORPORATION, priority 2018, dated 2021)

System: adult-derived normal human fibroblasts
Assay: Collagen production promoting test (human collagen type 1 ELISA of supernatant)
Format: cell-based
Conditions: final concentration 1 mg/mL; culture for 3 days; mean of 5 tests
Protocol: As the cells for test, adult-derived normal human fibroblasts bought from Kurabo Industries Ltd. were used.
As a cell growth medium, DMEM added with 10% FBS and […] mixed solution was used; and as a test medium, DMEM added with 1% FBS and 1% penicillin-streptomycin mixed solution was used.
Adult-derived normal human fibroblasts were sown and initiated in a cell growth medium inside a cell culture flask (Corning's T-75), and cultured in a moist environment at 37° C. in the presence of 5% CO2. During this, the medium was replaced every other day, and at the time when the culture reached 80% confluent growth, the cells were collected and used in the following tests.
The cultured fibroblasts were sown in a 96-well plate to be 5×10^3 cells/0.1 mL/well, and cultured therein at 37° C. in the presence of 5% CO2 for 1 day. Subsequently, the cell growth medium in each well was replaced with each test medium added with the composition 1 or L-ascorbic acid 2-glucoside, or with a test medium not added with them (control medium). […] Subsequently, the cells were cultured at 37° C. in the presence of 5% CO2 for 3 days, then the supernatant of the test medium in each well was collected, and using a human collagen-type 1 ELISA kit, the I-type collagen concentration in the supernatant was measured. […]

How did the “Collagen Production Amount (I-type collagen concentration in supernatant)” value turn out when `O=C1O[C@H]([C@@H](O)CO)C(O)=C1O[C@H]1O[C@H](CO)[C@@H](O)[C@H](O)[C@H]1O` [L-ascorbic Acid 2-Glucoside, L-ascorbic acid 2-glucoside] was run?
The value was 4.29 µg/mL.
